Assay results taken from patent publication US5712109A, “Antifungal agent produced by arthrinium arundinis ATCC 74359” (Merck & Co., Inc., priority 1997, dated 1998).
Values after ≈ are worked out from the molar mass of the structure shown.

Experiments:
Type in all cases: cell-based
[1] = tested on: Candida albicans (MY1055); assay: broth microdilution antifungal assay, Candida albicans MY1055
Experimental: (§1) In the microbroth dilution assay, microorganisms were selected by streaking a yeast culture on Sabouraud dextrose agar (SDA) and incubating for 24-48 hours at 35°-37° C. Three to five characteristic colonies were selected and transferred to a fresh plate and incubated under similar conditions. From the regrowth, 3 to 5 colonies were selected and suspended in 10 milliliters of YM broth (Difco) and incubated for 4 hours at 35°-37° C. shaking at 225 rpm. The 4 hour broth cultures were adjusted optically to 86% transmission resulting in a concentration of 1-5×10^6 cfu/ml which was further diluted 1:100 in YNBD (yeast nitrogen base with 1% dextrose) to obtain a concentration of 1-5×10^4 cfu/ml for use as inocula. […]
(§2) The plates containing the diluted compounds were then inoculated with 75 μl/well of the appropriate microorganism and incubated for 48 hours at 35°-37° C. with MIC (minimum inhibitory concentration) determinations carded out after 24 hours of incubation (except Cryptococcus strains which are read at 48 hours). […]
(§3) After recording M/Cs at 24 hours, the microtiter plates were shaken gently to resuspend the cells. […] For Cryptococcus neoformans, SDA plates were inoculated at 48 hours after recording MICs and incubated 48 hours before reading the MFG. […]

[2] = tested on: Candida glabrata (MY1381); assay: broth microdilution antifungal assay, Candida glabrata MY1381; details: Nakaseomyces glabratus
Experimental: as §1, §2, §3

[3] = tested on: Candida parapsilosis (MY1010); assay: broth microdilution antifungal assay, Candida parapsilosis MY1010; details: Lodderomyces parapsilosis
Experimental: as §1, §2, §3

[4] = tested on: Candida pseudotropicalis (MY2099); assay: broth microdilution antifungal assay, Candida pseudotropicalis MY2099; details: Kluyveromyces marxianus
Experimental: as §1, §2, §3

[5] = tested on: Candida tropicalis (MY1124); assay: broth microdilution antifungal assay, Candida tropicalis MY1124
Experimental: as §1, §2, §3

[6] = tested on: Candida albicans (CLY539); assay: broth microdilution antifungal assay, Candida albicans CLY539
Experimental: as §1, §2, §3

Candida albicans (CA2) = assay: broth microdilution antifungal assay, Candida albicans CA2
Experimental: as §1, §2, §3

[7] = tested on: Candida tropicalis (MY1012); assay: broth microdilution antifungal assay, Candida tropicalis MY1012
Experimental: as §1, §2, §3

[8] = tested on: Candida guillermondii (MY1019); assay: broth microdilution antifungal assay, Candida guillermondii MY1019
Experimental: as §1, §2, §3

Candida krusei = assay: broth microdilution antifungal assay, Candida krusei; details: Pichia kudriavzevii
Experimental: as §1, §2, §3

[9] = tested on: Cryptococcus neoformans (MY2061); assay: broth microdilution antifungal assay, Cryptococcus neoformans MY2061
Experimental: (§4) In the microbroth dilution assay, microorganisms were selected by streaking a yeast culture on Sabouraud dextrose agar (SDA) and incubating for 24-48 hours at 35°-37° C. Three to five characteristic colonies were selected and transferred to a fresh plate and incubated under similar conditions. From the regrowth, 3 to 5 colonies were selected and suspended in 10 milliliters of YM broth (Difco) and incubated for 4 hours at 35°-37° C. shaking at 225 rpm. The 4 hour broth cultures were adjusted optically to 86% transmission resulting in a concentration of 1-5×10^6 cfu/ml which was further diluted 1:100 in YNBD (yeast nitrogen base with 1% dextrose) to obtain a concentration of 1-5×10^4 cfu/ml for use as inocula.
(§5) The test compound was dissolved at 256 μg/ml in 10% DMSO and diluted 2× into the first well to achieve a concentration of 256 μg/ml at 5% DMSO in the first well. Compounds are subsequently serially diluted 2× and cell suspension is added to each well resulting in an additional 2× dilution of compound. 75 μl of said solution is delivered to each well in colunto 1 of a 96-well, U-bottomed plate. […]
as §3

[10] = tested on: Cryptococcus neoformans (MY2062); assay: broth microdilution antifungal assay, Cryptococcus neoformans MY2062
Experimental: as §4, §5, §3

[11] = tested on: Saccharomyces cerevisiae (MY2140); assay: broth microdilution antifungal assay, Saccharomyces cerevisiae MY2140
Experimental: as §1, §2, §3

[12] = tested on: Aspergillus fumigatus (MY4839); assay: broth microdilution antifungal assay, Aspergillus fumigatus MY4839
Experimental: as §1, §2
(§6) No MFC values are indicated for Aspergillus furnigatus since colony counts are unreliable with filamentous species. […] The MEC is scored macroscopically by direct observation of the plate wells after 24 hours and reflects microscopic alterations in cell morphology (Kurtz et al, AAC 1994 38:1480-1489).

[13] = tested on: Aspergillus fumigatus (MY5668); assay: broth microdilution antifungal assay, Aspergillus fumigatus MY5668
Experimental: as §1, §2, §6

panel of fungi = assay: broth microdilution antifungal assay, panel of fungi, comparison with amphotericin B; details: MIC/MFC broth microdilution assay
Experimental: In the microbroth dilution assay, microorganisms were selected by streaking a yeast culture on Sabouraud dextrose agar (SDA) and incubating for 24-48 hours at 35°-37° C. Three to five characteristic colonies were selected and transferred to a fresh plate and incubated under similar conditions. From the regrowth, 3 to 5 colonies were selected and suspended in 10 milliliters of YM broth (Difco) and incubated for 4 hours at 35°-37° C. shaking at 225 rpm. […]
as §2, §3, §6

filamentous fungi = assay: agar plate inhibition zone test against filamentous fungi; details: agar plates, 28° C. or 37° C., 24 hours
Experimental: The compound is also useful for inhibiting the growth of filamentous fungi. Such use may be illustrated in the following tests with Aspergillus flavus, Fusarium oxysporum, Ustilago zeae and the like. Inocula for filamentous fungi are prepared by scraping the surface of stock plates maintained on potato dextrose agar with a moistened sterile dacron swab. The spores and mycelia are then suspended in 10 milliliters of sterile potato dextrose broth and adjusted to 70 percent transmission at 660 nm. The samples to be tested for production of antifungal agent are applied directly to the agar plates as methanol solutions. When the sample to be tested is crude broth, it may be centrifuged prior to application. The assay plates are then incubated at either 28° C. or 37° C. for 24 hours. Following incubation, the inhibition zones are measured. Effects on growth are also noted as to appearance.

[14] = 24 hours, 35°-37° C., read-out: Minimum Inhibitory Concentration (MIC)
[15] = no growth or growth of ≤4 colonies on SDA, read-out: Minimum Fungicidal Concentration (MFC)
[16] = SDA incubated 48 hours, no growth or growth of ≤4 colonies, read-out: Minimum Fungicidal Concentration (MFC)
[17] = read at 48 hours, 35°-37° C., read-out: Minimum Inhibitory Concentration (MIC)
[18] = severe morphological change, scored macroscopically after 24 hours, read-out: Minimum Effective Concentration (MEC)

Question: How did the MIC [1, 14] turn out when CC(CCC(O)C(C)(O)CO)C1(O)CCC2(C)C3=C(CCC21C)C1(C)CCC(OC(=O)CCC(=O)O)C(C)(C)C1CC3 (centres unmarked) [Compound I] was run?
Answer: Its MIC is 4 µg/mL (≈ 6.75 µM).

Question: And the MFC [1, 15]?
Answer: Its MFC is 4 µg/mL (≈ 6.75 µM).

Question: And the MIC [2, 14]?
Answer: The MIC was 2 µg/mL (≈ 3.37 µM).

Question: And the MFC [2, 15]?
Answer: The MFC was 1 µg/mL (≈ 1.69 µM).

Question: And the MIC [3, 14]?
Answer: Its MIC is 4 µg/mL (≈ 6.75 µM).

Question: What about the MFC [3, 15] of the same compound?
Answer: Its MFC is 2 µg/mL (≈ 3.37 µM).

Question: What about the MIC [4, 14] of the same compound?
Answer: Its MIC is 8 µg/mL (≈ 13.5 µM).

Question: What about the MFC [4, 15] of the same compound?
Answer: The MFC was 8 µg/mL (≈ 13.5 µM).

Question: What about the MIC [5, 14] of the same compound?
Answer: The MIC was 8 µg/mL (≈ 13.5 µM).

Question: What about the MFC [5, 15] of the same compound?
Answer: The MFC was 8 µg/mL (≈ 13.5 µM).

Question: And the MIC [6, 14]?
Answer: Its MIC is 2 µg/mL (≈ 3.37 µM).

Question: And the MFC [6, 15]?
Answer: Its MFC is 2 µg/mL (≈ 3.37 µM).

Question: What about the MIC (Candida albicans (CA2); [14]) of the same compound?
Answer: The MIC was 16 µg/mL (≈ 27 µM).

Question: And the MFC (Candida albicans (CA2); [15])?
Answer: The MFC was 16 µg/mL (≈ 27 µM).

Question: What about the MIC [7, 14] of the same compound?
Answer: The MIC was 16 µg/mL (≈ 27 µM).

Question: And the MFC [7, 15]?
Answer: The MFC was 16 µg/mL (≈ 27 µM).

Question: What about the MIC [8, 14] of the same compound?
Answer: Its MIC is 64 µg/mL (≈ 108 µM).

Question: What about the MFC [8, 15] of the same compound?
Answer: Its MFC is 64 µg/mL (≈ 108 µM).

Question: And the MIC (Candida krusei; [14])?
Answer: Its MIC is 4 µg/mL (≈ 6.75 µM).

Question: And the MFC (Candida krusei; [15])?
Answer: The MFC was 2 µg/mL (≈ 3.37 µM).

Question: What about the MFC [9, 16] of the same compound?
Answer: Its MFC is 32 µg/mL (≈ 54 µM).

Question: And the MIC [9, 17]?
Answer: The MIC was greater than 64 µg/mL.

Question: And the MFC [10, 16]?
Answer: Its MFC is 64 µg/mL (≈ 108 µM).

Question: What about the MIC [10, 17] of the same compound?
Answer: The MIC was 32 µg/mL (≈ 54 µM).

Question: What about the MIC [11, 14] of the same compound?
Answer: The MIC was 8 µg/mL (≈ 13.5 µM).

Question: And the MFC [11, 15]?
Answer: The MFC was 8 µg/mL (≈ 13.5 µM).

Question: What about the MIC [12, 14] of the same compound?
Answer: The MIC was greater than 64 µg/mL.

Question: What about the minimal effective concentration [12, 18] of the same compound?
Answer: Its minimal effective concentration is 0.5 µg/mL.

Question: And the MIC [13, 14]?
Answer: Its MIC is 64 µg/mL (≈ 108 µM).

Question: And the minimal effective concentration [13, 18]?
Answer: Its minimal effective concentration is 1 µg/mL.

Question: What about the “effectiveness against a panel of fungi relative to amphotericin B” value (panel of fungi) of the same compound?
Answer: Its value is “at concentrations comparable to an established antifungal agent, amphotericin B”.

Question: And the “inhibition of growth of the fungal organisms (inhibition zones)” value (filamentous fungi)?
Answer: The value was “effectively inhibit growth of the fungal organisms”.
